Drawing on patent US9708286B2, “Ingenol-3-acylates III and ingenol-3-carbamates” (LEO Laboratories Limited, priority 2010, dated 2017), this text covers EC50 for 16 compounds.

What all share (type): cell-based
In test [1] the test system is PMN's (polymorphonuclear leukocytes). Briefly: Neutrophil oxidative burst. The following applies: Leukocyte, 40 min, normalized to 5×10^−7 M PEP0005. The protocol: PMN's (polymorphonuclear leukocytes) were isolated and purified from fresh buffy coats by sequential sedimentation, density centrifugation and lysis of contaminating erythrocytes. Buffy coats were incubated with 2% methocel for 30-45 min to differentially sediment red blood cells. The leukocyte-rich supernatant was transferred to lymphoprep tubes to remove mononuclear cells by density centrifugation (400×g, 30 min). The pellet was resuspended and any remaining erythrocytes lysed using 0.2% NaCl for 30 sec before restoring isotonicity by the addition of 1.2% NaCl. This step was repeated until the cell pellet appears relatively free of red blood cells. Cells were resuspended in DPBS (Dulbecco's Phosphate Buffered Saline) (w.o. Ca^2+, Mg^2+) and the concentration adjusted to 1.4×10^6 cells/ml in HBSS (Hanks Balanced Salt solution) (w Ca^2+, Mg^2±) containing 0.1% BSA (Bovine Serum Albumin) and 5 mM glucose just prior to assay initiation. Titrated reference and test compounds were pre-mixed with HE (Hydroethidine) (10 μM final assay concentration) before addition to 96-well plates containing 2.5×10^5 cells. Following 40 min incubation at RT, changes in the respiratory burst was estimated by measuring fluorescence at 579 nm (excitation: 485 nm) using an Envision plate reader.
Test compound titration curves were fitted to a four-parameter sigmoidal curve after normalizing the effect of the test compound to the effect of the positive control (5×10^−7 M PEP0005). Rel EC50 denotes the concentration of test compound producing an effect that is midway between the fitted top and bottom. Abs EC50 is the concentration of test compound that provokes a response corresponding to 50% of the maximal effect associated with the positive control (5×10^−7 M PEP0005).

The subject of test [2] is Primary human epidermal keratinocytes, HeKa. The test is described as follows: HeKa cytokine release (IL-8). The following applies: Homo sapiens, read-out: HeKa cytokine release (IL-8) Rel EC50 range. The protocol: Primary human epidermal keratinocytes, HeKa, were seeded (10.000 cells/well) in 96-well plates the day before the assay. Test compounds were diluted in DMSO (dimethyl sulfoxide) and further diluted in assay medium and pipetted into wells of 96 well-plates containing HeKa cells. The plates were incubated for 6 h at 37° C. in humidified air with 5% CO2. Plates were centrifuged briefly to spin down cells at 4° C., the supernatant was removed and analysed by Meso Scale Discovery (MSD) 4-spot cytokine assay (Pro-inflammatory II Ultra Sensitive kit, MSD, MD, USA). The MSD assay employs a sandwich immunoassay format where capture antibodies are coated in a patterned array on the bottom of the wells of a 4-Spot-Multi-MSD plate. Standard samples were incubated in the MULTI-SPOT plates as well, and the cytokine (IL-8) binds to its corresponding capture antibody spot. The cytokine level was quantitated on a SECTOR™ Imager using a cytokine-specific Detection Antibody labelled with MSD SULFO-TAG™ reagent.
Test compound titration curves were fitted to a four-parameter sigmoidal curve after normalizing the effect of the test compound to the effect of the positive control (1.5×10^−7 M PEP0005). Rel EC50 denotes the concentration of test compound producing an effect that is midway between the fitted top and bottom.

For test [3], the system named is HeLa cells. Briefly: Necrosis assay. The following applies: Homo sapiens, 0.5 h, read-out: HeLa necrosis EC50 range. The protocol: HeLa cells (ATCC CCL-002) were grown in minimal essential medium (Invitrogen catalog no. 42360) containing 10% fetal bovine serum, 100 IU/ml penicillin and 100 μg/ml streptomycin. 4,000-6,000 cells were seeded into 96-well black ViewPlates-plates, clear bottom, (Perkin Elmer) in 100 μl medium and incubated overnight. Compounds were dissolved and pre-diluted in DMSO in 96-well polypropylene plates (Greiner) in a concentration range of 15 μM to 600 μM. At the time of the experiment cell plates were placed on heating blocks at 37° C., medium was removed and 40 μl fresh, pre-warmed medium was added per well. Cells were incubated for 15 min before addition of compounds. In parallel, 3 μl of compounds were diluted with 197 μl growth medium on a Tecan freedom-EVO pipetting station using 250 μl/s pipetting speed, in order to ensure effective mixing of the highly concentrated compound solutions with the aqueous phase. These pre-dilution plates were then equilibrated on heating blocks at 37° C. for 10 min. 80 μl pre-diluted compound were transferred manually to the corresponding wells containing HeLa cells yielding compound concentrations of 10 μM to 400 μM. Control conditions were 1% DMSO in growth medium (100% viability) and 400 μM ingenol mebutate in growth medium (0% viability). Plates were incubated on the heating blocks at 37° C. for 30 min. At the end of the incubation 10 μl PrestoBlue reagent (Invitrogen) were added to each well, plates were sealed with black seal, followed by incubation at 37° C. for 10 min with gentle shaking (150 rpm). Subsequently, plates were placed at room temperature for 20-30 min. Plates were read immediately after on an Envision Fluorescence reader (Perkin Elmer) with excitation at 535 nm and emission at 630 nm. Test compound titration curves were fitted to a four-parameter sigmoidal curve after normalizing the effect of the test compound to the effect of the positive control (4 10^−4 M PEP0005/ingenol mebutate). AbsEC50 denotes the concentration of test compound producing 50% effect.

Where [4] appears, read: read-out: Neutrophil oxidative burst Rel EC50 range, PMN from buffy coats, 40 min at RT, hydroethidine fluorescence.
Where [5] appears, read: PMN from buffy coats, 40 min at RT, hydroethidine fluorescence, read-out: Neutrophil oxidative burst Rel EC50 range.
Setting [6] is: HeKa cells, 6 h at 37° C., IL-8 by MSD assay, normalized to 1.5×10^−7 M PEP0005.
[7] abbreviates: HeLa cells, 30 min at 37° C., PrestoBlue, AbsEC50, normalized to 400 μM ingenol mebutate.

The structures appear in SMILES notation. Like-named read-outs stand apart in the source and are kept apart here.

Turning to `CCN(CC)C(=O)O[C@H]1C(C)=C[C@]23C(=O)[C@@H](C=C(CO)[C@@H](O)[C@]12O)[C@H]1[C@@H](C[C@H]3C)C1(C)C` [Compound 706, Ingenol 3-(N,N-diethyl-carbamate)], the EC50 in test [1] (setting [4]) is < 20 nM; in test [2] (HEKa, 6 h) it was 20 to 100 nM; in test [3] (HeLa), > 350000 nM.
As to `CC1=C[C@]23C(=O)[C@@H](C=C(CO)[C@@H](O)[C@]2(O)[C@H]1OC(=O)c1nn(C)cc1Cl)[C@H]1[C@@H](C[C@H]3C)C1(C)C` [Compound 526, Ingenol 3-(4-chloro-1-methyl-pyrazole-3-carboxylate)], the EC50 in test [1] (setting [4]) was 20 to 100 nM; in test [2] (HEKa, 6 h) it was > 100 nM; in test [3] (HeLa), > 350000 nM.
`CC1=C[C@]23C(=O)[C@@H](C=C(CO)[C@@H](O)[C@]2(O)[C@H]1OC(=O)c1cccn1C1CC1)[C@H]1[C@@H](C[C@H]3C)C1(C)C` [Compound 585, Ingenol 3-(1-cyclopropylpyrrole-2-carboxylate)]: the EC50 was < 20 nM in test [1] (setting [4]); < 20 nM in test [2] (HEKa, 6 h); < 150000 nM in test [3] (HeLa).
Take `C/C=C(/C)C(=O)O[C@H]1C(C)=C[C@]23C(=O)[C@@H](C=C(CO)[C@@H](O)[C@]12O)[C@H]1[C@@H](C[C@H]3C)C1(C)C` [Ingenol mebutate, Ingenol-3-angelate, reference compound]: the EC50 was < 20 nM in test [1] (setting [5]), < 20 nM in test [2] (setting [6]) and 150000 to 350000 nM in test [3] (setting [7]).
Regarding `CC1=C[C@]23C(=O)[C@@H](C=C(CO)[C@@H](O)[C@]2(O)[C@H]1OC(=O)c1cccc2cc[nH]c12)[C@H]1[C@@H](C[C@H]3C)C1(C)C` [Compound 531, Ingenol 3-(1H-indole-7-carboxylate)], the EC50 was 20 to 100 nM in test [1] (setting [4]); < 20 nM in test [2] (HEKa, 6 h); < 150000 nM in test [3] (HeLa).
Consider `CC1=C[C@]23C(=O)[C@@H](C=C(CO)[C@@H](O)[C@]2(O)[C@H]1OC(=O)c1sc(C)nc1C)[C@H]1[C@@H](C[C@H]3C)C1(C)C` [Compound 527, Ingenol 3-(2,4-dimethylthiazole-5-carboxylate)], for which the EC50 in test [1] (setting [4]) was < 20 nM; in test [2] (HEKa, 6 h), 20 to 100 nM; in test [3] (HeLa), 150000 to 350000 nM.
On to `CC1=C[C@]23C(=O)[C@@H](C=C(CO)[C@@H](O)[C@]2(O)[C@H]1OC(=O)c1nc(Cl)sc1C(C)C)[C@H]1[C@@H](C[C@H]3C)C1(C)C` [Compound 539, Ingenol 3-(2-chloro-5-isopropyl-thiazole-4-carboxylate)], for which the EC50 in test [1] (setting [4]) is 20 to 100 nM; in test [2] (HEKa, 6 h) it was < 20 nM; in test [3] (HeLa) it was < 150000 nM.
Regarding `COc1nc(C)c(C(=O)O[C@H]2C(C)=C[C@]34C(=O)[C@@H](C=C(CO)[C@@H](O)[C@]23O)[C@H]2[C@@H](C[C@H]4C)C2(C)C)s1` [Compound 568, Ingenol 3-(2-methoxy-4-methyl-thiazole-5-carboxylate)], the EC50 fell in the range of 20 to 100 nM in test [1] (setting [4]); 20 to 100 nM in test [2] (HEKa, 6 h); 150000 to 350000 nM in test [3] (HeLa).
As for `CC1=C[C@]23C(=O)[C@@H](C=C(CO)[C@@H](O)[C@]2(O)[C@H]1OC(=O)N1c2ccccc2OCC1C)[C@H]1[C@@H](C[C@H]3C)C1(C)C` (stereo partly drawn) [Compound 739, Ingenol 3-(3-methyl-2,3-dihydro-1,4-benzoxazine-4-carboxylate)], the EC50 in test [1] (setting [4]) was < 20 nM; in test [2] (HEKa, 6 h), < 20 nM; in test [3] (HeLa) it was < 150000 nM.
Take `CC1=C[C@]23C(=O)[C@@H](C=C(CO)[C@@H](O)[C@]2(O)[C@H]1OC(=O)N(C)C1CCCC1)[C@H]1[C@@H](C[C@H]3C)C1(C)C` [Compound 722, Ingenol 3-(N-cyclopentyl-N-methyl-carbamate)]: the EC50 is < 20 nM in test [1] (setting [4]); 20 to 100 nM in test [2] (HEKa, 6 h); > 350000 nM in test [3] (HeLa).
As for `CCn1cc(C)c(C(=O)O[C@H]2C(C)=C[C@]34C(=O)[C@@H](C=C(CO)[C@@H](O)[C@]23O)[C@H]2[C@@H](C[C@H]4C)C2(C)C)c1C` [Compound 586, Ingenol 3-(1-ethyl-2,4-dimethyl-pyrrole-3-carboxylate)], the EC50 in test [1] (setting [4]) was < 20 nM; in test [2] (HEKa, 6 h) it was < 20 nM; in test [3] (HeLa) it was < 150000 nM.
With `CCc1noc(CC)c1C(=O)O[C@H]1C(C)=C[C@]23C(=O)[C@@H](C=C(CO)[C@@H](O)[C@]12O)[C@H]1[C@@H](C[C@H]3C)C1(C)C` [Compound 530, Ingenol 3-(3,5-diethylisoxazole-4-carboxylate)], the EC50 in test [1] (setting [5]) is < 20 nM; in test [2] (setting [6]), < 20 nM; in test [3] (setting [7]), < 150000 nM.
Consider `C=CCn1cc(C)c(C(=O)O[C@H]2C(C)=C[C@]34C(=O)[C@@H](C=C(CO)[C@@H](O)[C@]23O)[C@H]2[C@@H](C[C@H]4C)C2(C)C)c1C` [Compound 587, Ingenol 3-(1-allyl-2,4-dimethyl-pyrrole-3-carboxylate)], for which the EC50 in test [1] (setting [4]) was < 20 nM; in test [2] (HEKa, 6 h), < 20 nM; in test [3] (HeLa), < 150000 nM.
With `CC1=C[C@]23C(=O)[C@@H](C=C(CO)[C@@H](O)[C@]2(O)[C@H]1OC(=O)c1ccnn1-c1ccccc1)[C@H]1[C@@H](C[C@H]3C)C1(C)C` [Compound 505, Ingenol 3-(2-phenylpyrazole-3-carboxylate)], the EC50 is < 20 nM in test [1] (setting [4]); < 20 nM in test [2] (HEKa, 6 h); < 150000 nM in test [3] (HeLa).
With `CCc1noc(C)c1C(=O)O[C@H]1C(C)=C[C@]23C(=O)[C@@H](C=C(CO)[C@@H](O)[C@]12O)[C@H]1[C@@H](C[C@H]3C)C1(C)C` [Compound 507, Ingenol 3-(3-ethyl-5-methyl-isoxazole-4-carboxylate)], the EC50 is < 20 nM in test [1] (setting [4]); < 20 nM in test [2] (HEKa, 6 h); 150000 to 350000 nM in test [3] (HeLa).
In the case of `CC1=C[C@]23C(=O)[C@@H](C=C(CO)[C@@H](O)[C@]2(O)[C@H]1OC(=O)N1CCOc2ccccc21)[C@H]1[C@@H](C[C@H]3C)C1(C)C` [Compound 737, Ingenol 3-(2,3-dihydro-1,4-benzoxazine-4-carboxylate)], the EC50 in test [1] (setting [4]) was < 20 nM; in test [2] (HEKa, 6 h), < 20 nM; in test [3] (HeLa), < 150000 nM.

Usually EC50 stands for the concentration needed to bring the measured effect to its halfway point.
